Results from US10273222B2 (CELGENE QUANTICEL RESEARCH, INC., priority 2013, dated 2019).

How the values were obtained:
Type in all cases: biochemical
[1] = molecular target: Jarid1A (Homo sapiens (Human), UniProt P29375); experiment: Jarid1A in vitro enzyme inhibition assay (TR-FRET)
Description: The enzymatic assay of Jarid1A activity is based upon Time Resolved-Fluorescence Resonance Energy Transfer (TR-FRET) detection.

[2] = molecular target: Jarid1B (Homo sapiens (Human), UniProt Q9UGL1); experiment: Jarid1B in vitro enzyme inhibition assay (TR-FRET)
Chain of Jarid1B (Q9UGL1 2-751): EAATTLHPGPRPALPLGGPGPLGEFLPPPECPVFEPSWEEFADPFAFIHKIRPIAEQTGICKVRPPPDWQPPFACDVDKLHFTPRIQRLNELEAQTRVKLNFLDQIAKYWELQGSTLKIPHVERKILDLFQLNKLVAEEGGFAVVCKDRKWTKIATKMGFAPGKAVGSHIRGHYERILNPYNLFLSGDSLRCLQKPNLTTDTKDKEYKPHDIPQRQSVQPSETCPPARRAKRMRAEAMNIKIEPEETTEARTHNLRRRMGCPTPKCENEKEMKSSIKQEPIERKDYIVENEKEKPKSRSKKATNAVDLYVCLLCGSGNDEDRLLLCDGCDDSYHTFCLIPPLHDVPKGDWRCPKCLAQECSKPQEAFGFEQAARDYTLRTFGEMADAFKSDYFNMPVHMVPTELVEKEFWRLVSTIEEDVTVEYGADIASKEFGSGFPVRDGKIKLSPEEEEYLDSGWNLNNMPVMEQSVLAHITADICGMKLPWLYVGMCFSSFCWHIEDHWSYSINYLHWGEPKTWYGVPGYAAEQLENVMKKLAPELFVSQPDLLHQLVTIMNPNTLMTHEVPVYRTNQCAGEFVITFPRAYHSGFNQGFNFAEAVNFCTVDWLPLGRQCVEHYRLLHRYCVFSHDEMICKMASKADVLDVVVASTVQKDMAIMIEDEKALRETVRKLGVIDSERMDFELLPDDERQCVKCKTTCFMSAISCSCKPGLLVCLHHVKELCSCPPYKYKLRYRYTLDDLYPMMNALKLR

[3] = molecular target: JMJD2C (Homo sapiens (Human), UniProt Q9H3R0); experiment: JMJD2C in vitro enzyme inhibition assay (TR-FRET)
Chain of JMJD2C (Q9H3R0 2-372): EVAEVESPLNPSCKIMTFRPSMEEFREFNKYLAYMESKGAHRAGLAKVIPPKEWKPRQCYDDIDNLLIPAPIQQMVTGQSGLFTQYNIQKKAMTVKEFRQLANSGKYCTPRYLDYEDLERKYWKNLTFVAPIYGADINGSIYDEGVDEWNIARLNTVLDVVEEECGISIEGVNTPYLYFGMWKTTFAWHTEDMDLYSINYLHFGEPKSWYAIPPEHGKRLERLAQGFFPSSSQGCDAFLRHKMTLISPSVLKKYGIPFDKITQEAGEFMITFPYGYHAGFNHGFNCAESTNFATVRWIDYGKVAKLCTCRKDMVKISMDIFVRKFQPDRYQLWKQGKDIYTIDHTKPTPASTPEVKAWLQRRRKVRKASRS
Description: This assay determines the ability of a test compound to inhibit Jarid1A, Jarid1B, JMJD2C, and JMJD2A demethylase activity. […] Baculovirus expressed JMJD2C (GenBank Accession #BC143571, AA 2-372) was purchased from BPS Bioscience (Cat#50105).
The ability of test compounds to inhibit the activity of JMJD2C was determined in 384-well plate format under the following reaction conditions: 0.3 nM JMJD2C, 300 nM H3K9me3-biotin labeled peptide (Anaspec cat #64360), 2 μM alpha-ketoglutaric acid in assay buffer of 50 mM HEPES, pH7.3, 0.005% Brij35, 0.5 mM TCEP, 0.2 mg/ml BSA, 50 μM sodium L-ascorbate, and 2 μM ammonium iron(II) sulfate. Reaction product was determined quantitatively by TR-FRET after the addition of detection reagent Phycolink Streptavidin-allophycocyanin (Prozyme) and Europium-anti-di-methylated histone H3 lysine 9 (H3K9me2) antibody (PerkinElmer) in the presence of 5 mM EDTA in LANCE detection buffer (PerkinElmer) at a final concentration of 50 nM and 1 nM, respectively.
The assay reaction was initiated by the following: 2 μl of the mixture of 900 nM H3K9me3-biotin labeled peptide and 6 μM alpha-ketoglutaric acid with 2 μl of 11-point serial diluted inhibitor in 3% DMSO were added to each well of the plate, followed by the addition of 2 μl of 0.9 nM JMJD2C to initiate the reaction. The reaction mixture was incubated at room temperature for 30 minutes, and terminated by the addition of 6 μl of 5 mM EDTA in LANCE detection buffer containing 100 nM Phycolink Streptavidin-allophycocyanin and 2 nM Europium-anti-H3K9me2 antibody. Plates were read by EnVisionMultilabel Reader in TR-FRET mode (excitation at 320 nm, emission at 615 nm and 665 nm) after 1 hour incubation at room temperature. A ratio was calculated (665/615) for each well and fitted to determine inhibition constant (IC50).

[4] = molecular target: FBXL10 (Homo sapiens (Human), UniProt Q8NHM5); experiment: FBXL10 in vitro enzyme inhibition assay (AlphaScreen)
Chain of FBXL10 (Q8NHM5 1-650): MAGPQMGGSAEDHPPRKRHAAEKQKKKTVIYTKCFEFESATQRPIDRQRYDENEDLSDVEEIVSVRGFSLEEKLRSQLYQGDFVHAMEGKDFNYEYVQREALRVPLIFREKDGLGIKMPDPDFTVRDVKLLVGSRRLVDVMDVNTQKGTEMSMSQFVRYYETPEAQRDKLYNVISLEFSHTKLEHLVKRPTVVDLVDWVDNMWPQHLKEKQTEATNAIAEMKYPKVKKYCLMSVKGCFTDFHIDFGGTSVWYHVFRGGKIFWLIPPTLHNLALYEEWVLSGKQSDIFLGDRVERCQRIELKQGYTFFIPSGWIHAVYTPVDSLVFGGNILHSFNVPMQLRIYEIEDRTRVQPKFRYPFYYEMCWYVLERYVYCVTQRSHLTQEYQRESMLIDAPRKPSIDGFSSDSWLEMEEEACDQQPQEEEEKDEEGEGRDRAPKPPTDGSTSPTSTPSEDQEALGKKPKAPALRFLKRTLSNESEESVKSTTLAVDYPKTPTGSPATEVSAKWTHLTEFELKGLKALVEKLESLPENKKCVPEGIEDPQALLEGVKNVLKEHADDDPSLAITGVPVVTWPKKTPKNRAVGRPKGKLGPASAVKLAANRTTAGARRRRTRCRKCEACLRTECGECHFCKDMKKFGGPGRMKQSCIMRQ
Description: Reaction product was determined quantitatively by AlphaScreen detection after the addition of detection reagents anti-H3K36me1 antibody, AlphaScreen® Streptavidin-coated Donor beads, and AlphaScreen® Protein A Acceptor beads in 50 mM HEPES, pH7.3, 10 mM NaCl, 0.005% Brij35, 5 mM EDTA, 2 mg/ml BSA to final 10 μg/ml beads.
Plates were incubated at room temperature for 40 minutes, followed by addition of 3 μl of 50 μg/ml AlphaScreen® Streptavidin-coated Donor beads and AlphaScreen® Protein A Acceptor beads in 50 mM HEPES, pH7.3, 10 mM NaCl, 0.005% Brij35, 5 mM EDTA, 2 mg/ml BSA. Plates were read by EnVisionMultilabel Reader in AlphaScreen mode after a minimum of 2 hour or up to overnight incubation at room temperature. The AlphaScreen signal for each well was used to determine inhibition constant (IC50).

Chain of Jarid1A (P29375 1-1090): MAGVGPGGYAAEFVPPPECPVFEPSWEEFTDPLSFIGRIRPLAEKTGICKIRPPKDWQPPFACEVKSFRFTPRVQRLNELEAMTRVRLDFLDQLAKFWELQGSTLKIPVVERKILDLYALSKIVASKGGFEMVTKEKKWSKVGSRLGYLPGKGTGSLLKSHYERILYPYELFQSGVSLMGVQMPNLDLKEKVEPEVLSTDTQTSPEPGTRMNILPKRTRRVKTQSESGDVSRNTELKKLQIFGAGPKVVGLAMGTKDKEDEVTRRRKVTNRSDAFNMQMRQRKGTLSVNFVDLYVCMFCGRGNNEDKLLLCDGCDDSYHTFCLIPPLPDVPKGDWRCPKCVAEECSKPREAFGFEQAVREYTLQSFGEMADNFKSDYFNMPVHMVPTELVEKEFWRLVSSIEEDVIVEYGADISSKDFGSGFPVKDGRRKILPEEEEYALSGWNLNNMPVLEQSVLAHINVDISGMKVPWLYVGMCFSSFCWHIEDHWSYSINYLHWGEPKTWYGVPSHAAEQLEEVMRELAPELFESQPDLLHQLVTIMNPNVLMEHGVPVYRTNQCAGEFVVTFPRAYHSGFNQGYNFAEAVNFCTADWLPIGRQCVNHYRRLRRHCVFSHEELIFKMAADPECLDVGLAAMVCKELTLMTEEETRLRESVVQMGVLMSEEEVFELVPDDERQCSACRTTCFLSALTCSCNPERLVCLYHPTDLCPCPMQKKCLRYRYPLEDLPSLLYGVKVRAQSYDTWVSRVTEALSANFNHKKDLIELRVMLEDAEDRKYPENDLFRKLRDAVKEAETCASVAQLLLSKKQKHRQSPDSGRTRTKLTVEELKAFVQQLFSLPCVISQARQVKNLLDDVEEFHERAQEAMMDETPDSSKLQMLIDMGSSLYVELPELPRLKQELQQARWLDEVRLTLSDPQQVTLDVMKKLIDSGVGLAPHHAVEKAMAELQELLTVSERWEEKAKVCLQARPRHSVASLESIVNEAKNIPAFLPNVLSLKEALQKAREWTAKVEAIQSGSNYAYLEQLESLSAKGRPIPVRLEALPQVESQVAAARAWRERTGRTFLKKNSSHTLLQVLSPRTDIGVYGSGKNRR

| Compound | IC50 [1] [nM] | IC50 [2] [nM] | IC50 [3] [nM] | IC50 [4] [nM] |
| --- | --- | --- | --- | --- |
| CC(C)(C)C(=O)OCn1nnc(-c2ccnc(-c3cn(Cc4ccccc4Cl)cn3)c2)n1 [Example 166, (5-(2-(1-(2-chlorobenzyl)-1H-imidazol-4-yl)pyridin-4-yl)-2H-tetrazol-2-yl)methyl pivalate] |  |  | 1000 to 10000 | 1000 to 10000 |
| Cn1cnc(-c2cc(-c3nn[nH]n3)ccn2)c1-c1ccc(F)c(C(=O)NCc2ccccc2)c1 [Example 65, N-benzyl-2-fluoro-5-[3-methyl-5-[4-(2H-tetrazol-5-yl)pyridin-2-yl]imidazol-4-yl]benzamide] |  |  | 1000 to 10000 | ≤ 100 |
| Cn1nnc(-c2ccnc(-c3cn(Cc4ccccc4Cl)cn3)c2)n1 [Example 165, 2-(1-(2-chlorobenzyl)-1H-imidazol-4-yl)-4-(2-methyl-2H-tetrazol-5-yl)pyridine] |  |  | 1000 to 10000 | 1000 to 10000 |
| O=C(O)c1ccnc(-c2cn(CCN3CCOCC3)cn2)c1 [Example 45, 2-{1-[2-(morpholin-4-yl)ethyl]-1H-imidazol-4-yl}pyridine-4-carboxylic acid] | 1000 to 10000 | 100 to 1000 | > 10000 |  |
| Fc1ccc(-c2c(-c3cc(-c4nn[nH]n4)ccn3)ncn2Cc2cccc(Cl)c2)c(OCC2CC2)c1 [Example 169, 2-(1-(3-chlorobenzyl)-5-(2-(cyclopropylmethoxy)-4-fluorophenyl)-1H-imidazol-4-yl)-4-(2H-tetrazol-5-yl)pyridine] |  |  | 1000 to 10000 | 100 to 1000 |
| Fc1ccc(-c2c(-c3cc(-c4nn[nH]n4)ccn3)ncn2CC2CC2)cc1 [Example 135, 2-[1-(cyclopropylmethyl)-5-(4-fluorophenyl)imidazol-4-yl]-4-(2H-tetrazol-5-yl)pyridine] |  |  | 1000 to 10000 | ≤ 100 |
| CNC(=O)c1cccc(-c2c(-c3cc(C(=O)O)ccn3)ncn2C)c1 [Example 10, 2-{1-methyl-5-[3-(methylcarbamoyl)phenyl]-1H-imidazol-4-yl}pyridine-4-carboxylic acid] | 100 to 1000 | 100 to 1000 | 1000 to 10000 |  |
| Fc1ccc(-c2c(-c3cc(-c4nn[nH]n4)ccn3)ncn2CC(F)(F)F)cc1 [Example 134, 2-[5-(4-fluorophenyl)-1-(2,2,2-trifluoroethyl)imidazol-4-yl]-4-(2H-tetrazol-5-yl)pyridine] |  |  | 1000 to 10000 | ≤ 100 |
| Cn1cnc(-c2cc(C(=O)O)ccn2)c1-c1cc(F)c(F)cc1OCC1CC1 [Example 121, 2-[5-[2-(cyclopropylmethoxy)-4,5-difluorophenyl]-1-methylimidazol-4-yl]pyridine-4-carboxylic acid] |  |  | 1000 to 10000 | ≤ 100 |
| Clc1cccc(Cn2cnc(-c3cc(-c4nn[nH]n4)ccn3)c2)c1Cl [Example 158, 2-[1-[(2,3-dichlorophenyl)methyl]imidazol-4-yl]-4-(2H-tetrazol-5-yl)pyridine] |  |  | 1000 to 10000 | ≤ 100 |
| Cn1cnc(-c2cc(-c3nn[nH]n3)ccn2)c1-c1ccc(F)c(O)c1 [Example 162, 2-fluoro-5-[3-methyl-5-[4-(2H-tetrazol-5-yl)pyridin-2-yl]imidazol-4-yl]phenol] |  |  | 1000 to 10000 | ≤ 100 |
| c1ccc2c(Cn3cnc(-c4cc(-c5nn[nH]n5)ccn4)c3)cccc2c1 [Example 155, 2-[1-(naphthalen-1-ylmethyl)imidazol-4-yl]-4-(2H-tetrazol-5-yl)pyridine] |  |  | 1000 to 10000 | ≤ 100 |
| Fc1ccc(-c2c(-c3cc(-c4nn[nH]n4)ccn3)ncn2CCc2ccccc2Cl)cc1 [Example 132, 2-[1-[2-(2-chlorophenyl)ethyl]-5-(4-fluorophenyl)imidazol-4-yl]-4-(2H-tetrazol-5-yl)pyridine] |  |  | 1000 to 10000 | ≤ 100 |
| FC(F)(F)Oc1ccccc1Cn1cnc(-c2cc(-c3nn[nH]n3)ccn2)c1 [Example 156, 4-(2H-tetrazol-5-yl)-2-[1-[[2-(trifluoromethoxy)phenyl]methyl]imidazol-4-yl]pyridine] |  |  | 1000 to 10000 | ≤ 100 |
| COCC1(c2ccc(-c3c(-c4cc(C(=O)O)ccn4)ncn3C)cc2)CC1 [Example 25, 2-(5-{4-[1-(methoxymethyl)cyclopropyl]phenyl}-1-methyl-1H-imidazol-4-yl)pyridine-4-carboxylic acid] | ≤ 100 | ≤ 100 | 1000 to 10000 |  |
| CCOc1ccccc1CCn1cnc(-c2cc(-c3nn[nH]n3)ccn2)c1 [Example 128, 2-[1-[2-(2-ethoxyphenyl)ethyl]imidazol-4-yl]-4-(2H-tetrazol-5-yl)pyridine] |  |  | 1000 to 10000 | ≤ 100 |
| O=C(O)c1ccnc(-c2ncn(CC3CC3)c2-c2ccc(Cl)cc2)c1 [Example 126, 2-[5-(4-chlorophenyl)-1-(cyclopropylmethyl)imidazol-4-yl]pyridine-4-carboxylic acid] |  |  | 1000 to 10000 | ≤ 100 |

The next lines start with the values.

| IC50 [1] [nM] | IC50 [2] [nM] | IC50 [3] [nM] | IC50 [4] [nM] | Compound |
| --- | --- | --- | --- | --- |
| ≤ 100 | ≤ 100 | 100 to 1000 | ≤ 100 | O=C(O)c1ccnc(-c2cn(CCc3cccc(Cl)c3)cn2)c1 [Example 113, 2-[1-[2-(3-chlorophenyl)ethyl]imidazol-4-yl]pyridine-4-carboxylic acid] |
| ≤ 100 | ≤ 100 | ≤ 100 |  | COc1ccc(CCn2cnc(-c3cc(C(=O)O)ccn3)c2)cc1 [Example 94, 2-[1-[2-(4-methoxyphenyl)ethyl]imidazol-4-yl]pyridine-4-carboxylic acid] |
| ≤ 100 | ≤ 100 | 100 to 1000 | ≤ 100 | O=C(O)c1ccnc(-c2cn(CCC3CCCCC3)cn2)c1 [Example 114, 2-[1-(2-cyclohexylethyl)imidazol-4-yl]pyridine-4-carboxylic acid] |
| ≤ 100 | ≤ 100 | 100 to 1000 | ≤ 100 | COc1cc(-c2c(-c3cc(C(=O)O)ccn3)ncn2C)ccc1Cl [Example 30, 2-[5-(4-chloro-3-methoxyphenyl)-1-methyl-1H-imidazol-4-yl]pyridine-4-carboxylic acid] |
| ≤ 100 | ≤ 100 | 1000 to 10000 | 100 to 1000 | CCc1ccc(-c2c(-c3cc(C(=O)O)ccn3)ncn2C)cc1 [Example 5, 2-[5-(4-ethylphenyl)-1-methyl-1H-imidazol-4-yl]pyridine-4-carboxylic acid] |
| ≤ 100 | ≤ 100 | ≤ 100 | 100 to 1000 | CN1CCC(n2cnc(-c3cc(C(=O)O)ccn3)c2)CC1 [Example 49, 2-[1-(1-methylpiperidin-4-yl)-1H-imidazol-4-yl]pyridine-4-carboxylic acid] |
| ≤ 100 | ≤ 100 | 100 to 1000 | ≤ 100 | O=C(O)c1ccnc(-c2cn(Cc3ccccn3)cn2)c1 [Example 47, 2-[1-(pyridin-2-ylmethyl)-1H-imidazol-4-yl]pyridine-4-carboxylic acid] |
| 100 to 1000 | 100 to 1000 | 1000 to 10000 |  | Cn1cnc(-c2cc(C(=O)O)ccn2)c1-c1ccc(C(C)(C)C)cc1 [Example 9, 2-[5-(4-tert-butylphenyl)-1-methyl-1H-imidazol-4-yl]pyridine-4-carboxylic acid] |
| ≤ 100 | ≤ 100 | 100 to 1000 |  | Cn1cnc(-c2cc(C(=O)O)ccn2)c1-c1ccc(C2(CO)CC2)cc1 [Example 17, 2-(5-{4-[1-(hydroxymethyl)cyclopropyl]phenyl}-1-methyl-1H-imidazol-4-yl)pyridine-4-carboxylic acid] |
| ≤ 100 | ≤ 100 | ≤ 100 |  | O=C(O)c1ccnc(-c2cn(CCNCc3ccccc3C(F)(F)F)cn2)c1 [Example 75, 2-[1-[2-[[2-(trifluoromethyl)phenyl]methylamino]ethyl]imidazol-4-yl]pyridine-4-carboxylic acid] |
| ≤ 100 | 100 to 1000 | 1000 to 10000 |  | Cc1cc(Cl)ccc1-c1c(-c2cc(C(=O)O)ccn2)ncn1C [Example 26, 2-[5-(4-chloro-2-methylphenyl)-1-methyl-1H-imidazol-4-yl]pyridine-4-carboxylic acid] |
| ≤ 100 | ≤ 100 | ≤ 100 |  | CN(C)CCCn1cnc(-c2cc(C(=O)O)ccn2)c1 [Example 42, 2-{1-[3-(dimethylamino)propyl]-1H-imidazol-4-yl}pyridine-4-carboxylic acid] |
|  |  | 1000 to 10000 | ≤ 100 | c1ccc2c(c1)CC(Cn1cnc(-c3cc(-c4nn[nH]n4)ccn3)c1)C2 [Example 147, 2-[1-(2,3-dihydro-1H-inden-2-ylmethyl)imidazol-4-yl]-4-(2H-tetrazol-5-yl)pyridine] |
| ≤ 100 | ≤ 100 | ≤ 100 |  | CC(Cn1cnc(-c2cc(C(=O)O)ccn2)c1)N1CCCC1 (stereo not drawn) [Example 61, 2-{1-[2-(pyrrolidin-1-yl)propyl]-1H-imidazol-4-yl}pyridine-4-carboxylic acid] |
| ≤ 100 | ≤ 100 | 100 to 1000 |  | Cn1cnc(-c2cc(C(=O)O)ccn2)c1-c1ccc(C2(C(F)(F)F)CC2)cc1 [Example 34, 2-(1-methyl-5-{4-[1-(trifluoromethyl)cyclopropyl]phenyl}-1H-imidazol-4-yl)pyridine-4-carboxylic acid] |
